# System: 521955-158-R2-J5-PDC complex spheroids, viability
# Test: Anticancer human tumor 521955-158-R2-J5-PDC patient-derived pancreatic carcinoma cell line growth inhibition [RAS]
# Settings: for IC50: curve of first compound; for viability, T/C: stronger effect = lower value
# Procedure, shortened: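 Agents were tested in combination matrices in half-log decrements from a top concentration at or near clinical Cmax (10 microM if undetermined). Targets were multi-cell spheroids of tumour lines plus HUVEC and MSC stromal cells.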
# [1] = second compound 0.000949 µM, first compound 0.0316 µM
# [2] = second compound 0.000949 µM, first compound 0.1 µM
# [3] = second compound 0.000949 µM, first compound 0.316 µM
# [4] = second compound 0.000949 µM, first compound 1 µM
# [5] = second compound 0.000949 µM, first compound 3.16 µM
# [6] = second compound 0.000949 µM, first compound 10 µM
# [7] = second compound 0.003 µM, first compound 0.0316 µM
# [8] = second compound 0.003 µM, first compound 0.1 µM
# [9] = second compound 0.003 µM, first compound 0.316 µM
# [10] = second compound 0.003 µM, first compound 1 µM
# [11] = second compound 0.003 µM, first compound 3.16 µM
# [12] = second compound 0.003 µM, first compound 10 µM
# [13] = second compound 0.00949 µM, first compound 0.0316 µM
# [14] = second compound 0.00949 µM, first compound 0.1 µM
# [15] = second compound 0.00949 µM, first compound 0.316 µM
# [16] = second compound 0.00949 µM, first compound 1 µM
# [17] = second compound 0.00949 µM, first compound 3.16 µM
# [18] = second compound 0.00949 µM, first compound 10 µM
# [19] = second compound 0.03 µM, first compound 0.0316 µM
# [20] = second compound 0.03 µM, first compound 0.1 µM
# [21] = second compound 0.03 µM, first compound 0.316 µM
# [22] = second compound 0.03 µM, first compound 1 µM
# [23] = second compound 0.03 µM, first compound 3.16 µM
# [24] = second compound 0.03 µM, first compound 10 µM
# [25] = second compound 0.0949 µM, first compound 0.0316 µM
# [26] = second compound 0.0949 µM, first compound 0.1 µM
# [27] = second compound 0.0949 µM, first compound 0.316 µM
# [28] = second compound 0.0949 µM, first compound 1 µM
# [29] = second compound 0.0949 µM, first compound 3.16 µM
# [30] = second compound 0.0949 µM, first compound 10 µM
# [31] = second compound 0.3 µM, first compound 0.0316 µM
# [32] = second compound 0.3 µM, first compound 0.1 µM
# [33] = second compound 0.3 µM, first compound 0.316 µM
# [34] = second compound 0.3 µM, first compound 1 µM
# [35] = second compound 0.3 µM, first compound 3.16 µM
# [36] = second compound 0.3 µM, first compound 10 µM
# 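Further: compound exposure lasted seven days before the viability read.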
# 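Wherever viability, T/C is given: spheroids also contain HUVEC endothelial cells and mesenchymal stem cells as stroma.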
compound,measurement,setting,value
CCC(CC)c1cc(NC2CCC(N)C2)n2nccc2n1 (stereo unspecified) + CCn1c(-c2cccnc2C(C)OC)c2c3cc(ccc31)N1CCOC(CC(NC(=O)C(C(C)C)N(C)C(=O)C3(F)CCN(C(=O)C#CC(C)(C)N(C)C)CC3)C(=O)N3CCCC(N3)C(=O)OCC(C)(C)C2)C1,IC50,second compound 0.000949 µM,1.9 µM
same,IC50,second compound 0.003 µM,1.91 µM
same,IC50,second compound 0.00949 µM,1.96 µM
same,IC50,second compound 0.03 µM,1.93 µM
same,IC50,second compound 0.0949 µM,1.73 µM
same,IC50,second compound 0.3 µM,1.7 µM
same,"viability, T/C",[1],93.9%
same,"viability, T/C",[2],92.6%
same,"viability, T/C",[3],104%
same,"viability, T/C",[4],122%
same,"viability, T/C",[5],6.03%
same,"viability, T/C",[6],9.22%
same,"viability, T/C",[7],94.6%
same,"viability, T/C",[8],108%
same,"viability, T/C",[9],106%
same,"viability, T/C",[10],116%
same,"viability, T/C",[11],5.99%
same,"viability, T/C",[12],6.76%
same,"viability, T/C",[13],113%
same,"viability, T/C",[14],97.7%
same,"viability, T/C",[15],116%
same,"viability, T/C",[16],117%
same,"viability, T/C",[17],7.29%
same,"viability, T/C",[18],6.73%
same,"viability, T/C",[19],99.2%
same,"viability, T/C",[20],101%
same,"viability, T/C",[21],105%
same,"viability, T/C",[22],117%
same,"viability, T/C",[23],8.41%
same,"viability, T/C",[24],5.64%
same,"viability, T/C",[25],83.1%
same,"viability, T/C",[26],75.6%
same,"viability, T/C",[27],97.4%
same,"viability, T/C",[28],100%
same,"viability, T/C",[29],6.48%
same,"viability, T/C",[30],6.71%
same,"viability, T/C",[31],84.9%
same,"viability, T/C",[32],75.4%
same,"viability, T/C",[33],88.1%
same,"viability, T/C",[34],88.6%
same,"viability, T/C",[35],9.96%
same,"viability, T/C",[36],5.87%
C[C@@H](NC(=O)c1ncnc(N)c1Cl)c1ncc(C(=O)Nc2cc(C(F)(F)F)c(Cl)cn2)s1 + C=CC(=O)N1CCN(c2nc(OCC3CCCN3C)nc3c(F)c(-c4nc(N)cc(C)c4C(F)(F)F)c(Cl)cc23)C(C)C1,IC50,second compound 0.00316 µM,> 10 µM
same,IC50,second compound 0.01 µM,> 10 µM
same,IC50,second compound 0.0316 µM,> 10 µM
same,IC50,second compound 0.1 µM,> 10 µM
same,IC50,second compound 0.316 µM,> 10 µM
same,IC50,second compound 1 µM,6.75 µM
same,"viability, T/C","second compound 0.00316 µM, first compound 0.0316 µM",105%
same,"viability, T/C","second compound 0.00316 µM, first compound 0.1 µM",90.8%
same,"viability, T/C","second compound 0.00316 µM, first compound 0.316 µM",103%
same,"viability, T/C","second compound 0.00316 µM, first compound 1 µM",103%
same,"viability, T/C","second compound 0.00316 µM, first compound 3.16 µM",89.3%
same,"viability, T/C","second compound 0.00316 µM, first compound 10 µM",56.3%
same,"viability, T/C","second compound 0.01 µM, first compound 0.0316 µM",107%
same,"viability, T/C","second compound 0.01 µM, first compound 0.1 µM",134%
same,"viability, T/C","second compound 0.01 µM, first compound 0.316 µM",84.8%
same,"viability, T/C","second compound 0.01 µM, first compound 1 µM",130%
same,"viability, T/C","second compound 0.01 µM, first compound 3.16 µM",82.9%
same,"viability, T/C","second compound 0.01 µM, first compound 10 µM",60.2%
same,"viability, T/C","second compound 0.0316 µM, first compound 0.0316 µM",101%
same,"viability, T/C","second compound 0.0316 µM, first compound 0.1 µM",138%
same,"viability, T/C","second compound 0.0316 µM, first compound 0.316 µM",92.8%
same,"viability, T/C","second compound 0.0316 µM, first compound 1 µM",129%
same,"viability, T/C","second compound 0.0316 µM, first compound 3.16 µM",80.7%
same,"viability, T/C","second compound 0.0316 µM, first compound 10 µM",53.2%
same,"viability, T/C","second compound 0.1 µM, first compound 0.0316 µM",144%
same,"viability, T/C","second compound 0.1 µM, first compound 0.1 µM",132%
same,"viability, T/C","second compound 0.1 µM, first compound 0.316 µM",112%
same,"viability, T/C","second compound 0.1 µM, first compound 1 µM",86.5%
same,"viability, T/C","second compound 0.1 µM, first compound 3.16 µM",73.1%
same,"viability, T/C","second compound 0.1 µM, first compound 10 µM",54.8%
same,"viability, T/C","second compound 0.316 µM, first compound 0.0316 µM",164%
same,"viability, T/C","second compound 0.316 µM, first compound 0.1 µM",179%
same,"viability, T/C","second compound 0.316 µM, first compound 0.316 µM",96%
same,"viability, T/C","second compound 0.316 µM, first compound 1 µM",96.2%
same,"viability, T/C","second compound 0.316 µM, first compound 3.16 µM",79.5%
same,"viability, T/C","second compound 0.316 µM, first compound 10 µM",57.1%
same,"viability, T/C","second compound 1 µM, first compound 0.0316 µM",198%
same,"viability, T/C","second compound 1 µM, first compound 0.1 µM",93.3%
same,"viability, T/C","second compound 1 µM, first compound 0.316 µM",88.5%
same,"viability, T/C","second compound 1 µM, first compound 1 µM",76.5%
same,"viability, T/C","second compound 1 µM, first compound 3.16 µM",74.2%
same,"viability, T/C","second compound 1 µM, first compound 10 µM",56.6%
CC(C)NCC(C(=O)N1CCN(c2ncnc3c2C(C)CC3O)CC1)c1ccc(Cl)cc1 (stereo unspecified) + CCn1c(-c2cccnc2C(C)OC)c2c3cc(ccc31)N1CCOC(CC(NC(=O)C(C(C)C)N(C)C(=O)C3(F)CCN(C(=O)C#CC(C)(C)N(C)C)CC3)C(=O)N3CCCC(N3)C(=O)OCC(C)(C)C2)C1,IC50,second compound 0.000949 µM,> 10 µM
same,IC50,second compound 0.003 µM,> 10 µM
same,IC50,second compound 0.00949 µM,> 10 µM
same,IC50,second compound 0.03 µM,> 10 µM
same,IC50,second compound 0.0949 µM,> 10 µM
same,IC50,second compound 0.3 µM,8.61 µM
same,"viability, T/C",[1],84.8%
same,"viability, T/C",[2],85.3%
same,"viability, T/C",[3],84.9%
same,"viability, T/C",[4],62.7%
same,"viability, T/C",[5],68%
same,"viability, T/C",[6],72%
same,"viability, T/C",[7],81.6%
same,"viability, T/C",[8],92.5%
same,"viability, T/C",[9],77.4%
same,"viability, T/C",[10],56.1%
same,"viability, T/C",[11],62.4%
same,"viability, T/C",[12],79.1%
same,"viability, T/C",[13],88.7%
same,"viability, T/C",[14],91.7%
same,"viability, T/C",[15],78.7%
same,"viability, T/C",[16],53%
same,"viability, T/C",[17],60.1%
same,"viability, T/C",[18],68%
same,"viability, T/C",[19],83.9%
same,"viability, T/C",[20],100%
same,"viability, T/C",[21],83%
same,"viability, T/C",[22],57.5%
same,"viability, T/C",[23],68.3%
same,"viability, T/C",[24],56.8%
same,"viability, T/C",[25],93.6%
same,"viability, T/C",[26],92%
same,"viability, T/C",[27],82.4%
same,"viability, T/C",[28],64.3%
same,"viability, T/C",[29],61.3%
same,"viability, T/C",[30],59.9%
same,"viability, T/C",[31],67.2%
same,"viability, T/C",[32],76.6%
same,"viability, T/C",[33],67.9%
same,"viability, T/C",[34],57.2%
same,"viability, T/C",[35],57.4%
same,"viability, T/C",[36],49.6%

# From PubChem BioAssay AID2060900 (Molecular Pharmacology Branch, DTP, NCI, 2025)
